Source: patent publication US20240327408A1, “COMPOUNDS CONTAINING TETRAHYDRONAPHTHYRIDINONE OR TETRAHYDROPYRIDOPYRIMIDINONE SKELETON, PREPARATION METHOD THEREFOR AND PHARMACEUTICAL USE THEREOF” (CHINA PHARMACEUTICAL UNIVERSITY, priority 2021, published 2024)

Legend:
MV4; 11 cells = assay: inhibiting the growth of MV4; 11 cells; assay type: cell-based; conditions: Homo sapiens
[1] = system: xenograft solid tumor models such as colon cancer, breast cancer, and brain tumors; conditions: Oncotarget 2016, 7, 74380-74392; cited from earlier work
hClpP = target: T1, hClpP (Homo sapiens, UniProt Q16740); assay: activating ClpP hydrolysis of FITC-casein (fluorescence kinetic detection); assay type: biochemical; conditions: hClpP 1 μM, FITC-Casein 4 μM, 37° C.
T1 construct: made in house
T1 sequence (Q16740 57-277): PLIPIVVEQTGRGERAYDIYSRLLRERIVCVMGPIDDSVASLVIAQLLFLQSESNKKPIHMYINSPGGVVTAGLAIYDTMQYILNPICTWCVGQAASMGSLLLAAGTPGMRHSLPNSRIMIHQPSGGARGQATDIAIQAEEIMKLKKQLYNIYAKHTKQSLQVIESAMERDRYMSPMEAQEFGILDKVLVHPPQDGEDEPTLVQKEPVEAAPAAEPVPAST
Outline: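 hClpP at 1 μM final preincubated with compounds (assay-buffer dilutions 200 μM–2 nM, before mixing) 30 min at 37 °C, then 4 μM final FITC-casein added. Fluorescence read kinetically at 37 °C every 1 min for 15 min, duplicate wells.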

SMILES | IC50 (MV4; 11 cells) | EC50 (hClpP) | tumor regression in xenograft solid tumor models [1]
Cc1ccccc1CN1C(=O)C2=C(CCN(Cc3ccccc3)C2)N2CCN=C12 [ONC201, reference compound] | 0.1 to 10 µM |  | cause tumor regression
N#Cc1cccc(CN2CCc3c(c(=O)n(Cc4ccc(C(F)(F)F)cc4)c4cncn34)C2)c1 [Compound I-165, 7-(3-cyanobenzyl)-4-(4-trifluoromethylbenzyl)-6,7,8,9-tetrahydroimidazo[1,5-a]pyrido[3,4-e]pyrimidine-5(4H)-one] | 1 to 10 µM | 1 to 10 µM | 
O=c1c2c(c3cccnc3n1Cc1ccccc1)CCN(Cc1cc(Cl)ccn1)C2 [Compound I-30, 6-benzyl-3-((4-chloropyridin-2-yl)methyl)-2,3,4,6-tetrahydropyrido[3,4-c][1,8]naphthyridine-5-(1H)-one] | 1 to 10 µM | 10 to 100 µM | 
O=c1c2c(n3ncnc3n1Cc1ccc(C(F)(F)F)cc1)CCN(Cc1cccc(Cl)c1)C2 [Compound I-150, 4-(4-trifluoromethylbenzyl)-7-(3-chlorobenzyl)-6,7,8,9-tetrahydropyrido[3,4-e][1,2,4]triazolo[1,5-a]pyrimidine-5(4H)-one] | 1 to 10 µM | 1 to 10 µM | 
O=c1c2c(c3cccnc3n1CC1CC1)CCN(Cc1ccccc1)C2 [Compound I-36, 3-benzyl-6-(cyclopropylmethyl)-2,3,4,6-tetrahydropyrido[3,4-c][1,8]naphthyridine-5-(1H)-one] | 1 to 10 µM | 10 to 100 µM | 
Cn1ccnc1Cn1c(=O)c2c(c3cccnc31)CCN(Cc1ccccc1)C2 [Compound I-65, 3-benzyl-6-((1-methyl-1H-imidazol-2-yl)methyl)-2,3,4,6-tetrahydropyrido[3,4-c][1,8]naphthyridine-5-(1H)-one] | 1 to 10 µM | 10 to 100 µM | 
Cc1cccc(CN2CCc3c(c(=O)n(Cc4ccccc4)c4ccnn34)C2)c1 [Compound I-158, 4-benzyl-7-(3-methylbenzyl)-6,7,8,9-tetrahydropyrazolo[1,5-a]pyrido[3,4-e]pyrimidine-5(4H)-one] | 1 to 10 µM | 1 to 10 µM | 
O=c1c2c(n3ncnc3n1Cc1ccc(Cl)cc1)CCN(Cc1ccccc1)C2 [Compound I-152, 4-(4-chlorobenzyl)-7-benzyl-6,7,8,9-tetrahydropyrido[3,4-e][1,2,4]triazolo[1,5-a]pyrimidine-5(4H)-one] | 1 to 10 µM | 1 to 10 µM | 

Now from value to molecule, other results behind:

IC50 (MV4; 11 cells) | EC50 (hClpP) | SMILES | tumor regression in xenograft solid tumor models [1]
< 1 µM | < 1 µM | CCc1ccc(Cn2c(=O)c3c(c4cccnc42)CCN(Cc2ccccc2)C3)cc1 [Compound I-56, 3-benzyl-6-(4-ethylbenzyl)-2,3,4,6-tetrahydropyrido[3,4-c][1,8]naphthyridine-5-(1H)-one] | 
1 to 10 µM | 10 to 100 µM | Cc1ncc(Cn2c(=O)c3c(c4cccnc42)CCN(Cc2ccccc2)C3)s1 [Compound I-69, 3-benzyl-6-((2-methylthiazol-5-yl)methyl)-2,3,4,6-tetrahydropyrido[3,4-c][1,8]naphthyridine-5-(1H)-one] | 
1 to 10 µM | 10 to 100 µM | Cn1nccc1Cn1c(=O)c2c(c3cccnc31)CCN(Cc1ccccc1)C2 [Compound I-59, 3-benzyl-6-((1-methyl-1H-pyrazol-5-yl)methyl)-2,3,4,6-tetrahydropyrido[3,4-c][1,8]naphthyridine-5-(1H)-one] | 
1 to 10 µM | 10 to 100 µM | Cn1cnc(CN2CCc3c(c(=O)n(Cc4ccccc4)c4ncccc34)C2)c1 [Compound I-32, 6-benzyl-3-((1-methyl-1H-imidazol-4-yl)methyl)-2,3,4,6-tetrahydropyrido[3,4-c][1,8]naphthyridine-5-(1H)-one] | 
< 1 µM | < 1 µM | N#Cc1cccc(CN2CCc3c(c(=O)n(Cc4ccccc4)c4ncccc34)C2)c1 [Compound I-82, 6-benzyl-3-(3-cyanobenzyl)-2,3,4,6-tetrahydropyrido[3,4-c][1,8]naphthyridine-5-(1H)-one] | 
< 1 µM | < 1 µM | O=c1c2c(c3ccsc3n1Cc1ccc(C(F)(F)F)cc1)CCN(Cc1ccccc1)C2 [Compound I-104, 7-benzyl-4-(4-trifluoromethylbenzyl)-6,7,8,9-tetrahydrothieno[2,3-C][2,7]naphthyridine-5(4H)-one] | 
< 1 µM | < 1 µM | COc1ccc(Cn2c(=O)c3c(n4ccnc24)CCN(Cc2cccc(Cl)c2)C3)cc1 [Compound I-144, 7-(3-chlorobenzyl)-4-(4-methoxybenzyl)-6,7,8,9-tetrahydroimidazo[1,2-a]pyrido[3,4-e]pyrimidine-5(4H)-one] | 
< 1 µM | < 1 µM | O=c1c2c(c3cocc3n1Cc1ccc(C(F)(F)F)cc1)CCN(Cc1ccccc1)C2 [Compound I-101, 7-benzyl-4-(4-trifluoromethylbenzyl)-6,7,8,9-tetrahydrofuro[3,4-C][2,7]naphthyridine-5(4H)-one] | 
< 1 µM | < 1 µM | CCc1ccc(Cn2c(=O)c3c(c4cccnc42)CCN(Cc2cccc(F)c2)C3)cc1 [Compound I-95, 6-(4-ethylbenzyl)-3-(3-fluorobenzyl)-2,3,4,6-tetrahydropyrido[3,4-c][1,8]naphthyridine-5-(1H)-one] | 
